Source: US8158088B2, “Extractant compositions for co-extracting cesium and strontium, a method of separating cesium and strontium from an aqueous feed, and calixarene compounds” (Battelle Energy Alliance, LLC, priority 2008, dated 2012)
Several values for one entry are separate records, joined by “and”; a condition that tells them apart may be missing. Identical values can stand only once.

How the values were obtained:
Assay type in all cases: physicochemical
[1] = Strontium distribution ratio (DSr), equilibrium batch contact of mixed extractant solvent with nitric acid feed; conditions: for DSr: 1.5 HNO3
[2] = Solvent stability: strontium distribution ratios as a function of contact time with 1.5 M HNO3
Procedure: (§1) The stability of the mixed extractant solvents prepared using dialkyloxycalix[4]arenebenzocrown-6 compounds (MC-8, MC-8B, MC-10, MC-10B, MC-12, or MC-12B) relative to BOBCalixC6 in the FPEX I process solvent was determined. Samples were prepared using each of the dialkyloxycalix[4]arenebenzocrown-6 compounds and contacted with 1.5 M HNO3. The samples included 0.007 M of the respective dialkyloxycalix[4]arenebenzo-crown-6 compound (MC-8, MC-8B, MC-10, MC-10B, MC-12, or MC-12B), 0.075 M DtBuCH18C6, 0.75 M Cs-7SB modifier, and 0.003 M TOA in ISOPAR® L. The stability of the dialkyloxycalix[4]arene-benzocrown-6 based solvents was evaluated by measuring the cesium and strontium distribution ratios as a function of contact time. These cesium and strontium distribution ratios for the mixed extractant solvents are presented in Table 9 and Table 10, respectively, along with the cesium and strontium distribution ratios for the FPEX I process solvent. The symbol “-” is used in Tables 9 and 10 to indicate no data was collected.
(§2) This degradation is likely due to chemical attack or nitration of the BOBCalixC6 in the FPEX I process solvent. […] However, it is difficult to compare the relative extents of degradation. In order to compare the different extractants, the distribution ratio data presented in Tables 9 and 10 were normalized to the values obtained at t=0 days contact. The normalized cesium and strontium distribution ratios for the FPEX I process solvent and the mixed extractant solvents as a function of contact time are presented in FIGS. 2 and 3, respectively.

[3] = Third phase formation on contact with nitric acid
[4] = Cesium distribution ratio (DCs), equilibrium batch contact of mixed extractant solvent with nitric acid feed; conditions: for DCs: 1.5 HNO3
From the text: The distribution of cesium and strontium between the first organic phase (the mixed extractant solvent including the dialkyloxycalix[4]arenebenzocrown-6 compound) and the first aqueous phase (aqueous feed) may be determined by conventional techniques. The distribution ratio for strontium (“DSr”) may be calculated as the ratio of organic phase activity to the aqueous phase activity at equilibrium. High values for the DSr indicate that the strontium is present predominantly in the organic phase while low values for the DSr indicate that the strontium is present predominantly in the aqueous phase. Similarly, the distribution ratio for cesium (“DCs”) may be calculated as the ratio of organic phase activity to the aqueous phase activity at equilibrium. High values for the DCs indicate that the cesium is present predominantly in the organic phase while low values for the DCs indicate that the cesium is present predominantly in the aqueous phase.
Distribution ratios (DM=[M]org/[M]aq) were measured by equilibrium batch contacts between the organic and aqueous phases at an organic-to-aqueous phase ratio (O/A) of unity (O/A=1). All distribution ratio measurements were conducted in a temperature controlled water bath at 25±1° C. The aqueous phase was of the appropriate HNO3 concentration, to which trace quantities (typically, less than 10^−7 M each) of the major radionuclides of interest (^137Cs, ^85Sr, ^154Eu, or ^241Am) were added. The organic and aqueous phases were contacted by vortex mixing for 1 minute. All batch contact experiments were performed at ambient temperature (from approximately 20° C. to approximately 25° C.) unless otherwise noted. Following extraction, the samples were centrifuged for 1 minute and the organic and aqueous phases separated by pipet or centrifugation. The distribution ratios (DSr, or DCs) were calculated as the ratio of the appropriate specific activities in the organic and aqueous phases as determined by γ-ray counting (gamma spectroscopy). The counting time was selected to provide less than approximately 1% statistical uncertainty.
(MC-8, MC-8B, MC-10, MC-10B, MC-12, or MC-12B), 0.075 M DtBuCH18C6, 0.75 M Cs-7SB modifier, and 0.003 M TOA in ISOPAR® L were evaluated for their respective abilities to simultaneously extract cesium and strontium from the aqueous feed simulant composition described in Table 2. The cesium and strontium distribution ratios of the mixed extraction solvents were compared to those of the FPEX I process solvent. The cesium extraction performance and strontium extraction performance of each of the mixed extractant solvents was determined using the batch contact flowsheet presented in FIG. 1, where “E1,” “E2,” and “E3” refer to three forward extraction acts: a first extraction act, a second extraction act, and a third extraction act, respectively, and “St1” and “St2” refer to two backward extraction acts: a first strip act and a second strip act, respectively. […] The aqueous feed 2 and the mixed extractant solvent 4 were combined in a vessel 6 to conduct the extraction. Two phases were formed during the extraction: the first organic phase and the first aqueous phase, with the cesium and strontium substantially distributed in the first organic phase.
The cesium and strontium distribution ratios for the mixed extractant solvents 4 were calculated for the first organic phase and are reported in Tables 3 and 4, respectively, as E1, along with the cesium and strontium distribution ratios for the FPEX I process solvent. The cesium and strontium were stripped from the first (and subsequent) organic phase to recover these radionuclides. For the strips or backward extractions, the first (and subsequent) organic phase was contacted with dilute acidic solution 8, which was 0.01 M HNO3. […]

[5] = Solvent stability: cesium distribution ratios as a function of contact time with 1.5 M HNO3
Procedure: as §1, §2

[6] = [DtBuCH18C6]/[MC-10B] 50/10 mM, 1.5 M Cs-5SB
[7] = [DtBuCH18C6]/[MC-10B] 60/10 mM, 1.5 M Cs-5SB
[8] = [DtBuCH18C6]/[MC-10B] 60/15 mM, 1.5 M Cs-5SB
[9] = [DtBuCH18C6]/[MC-10B] 90/20 mM, 1.5 M Cs-5SB in ISOPAR L, feed 0.004 M cesium nitrate, 0.002 M strontium nitrate
[10] = first forward extraction, 1.5 M HNO3 feed simulant, 25 °C, 0.007 M calixarene, 0.075 M DtBuCH18C6, 0.75 M Cs-7SB, 0.003 M TOA in ISOPAR L
[11] = first strip with 0.01 M HNO3, 35 °C, 0.007 M calixarene solvent
[12] = second forward extraction, 1.5 M HNO3 feed, 25 °C, 0.007 M calixarene solvent
[13] = second strip with 0.01 M HNO3, 35 °C, 0.007 M calixarene solvent
[14] = third forward extraction, 1.5 M HNO3 feed, 25 °C, 0.007 M calixarene solvent
[15] = contact time 0 days with 1.5 M HNO3, 0.007 M calixarene, 0.075 M DtBuCH18C6, 0.75 M Cs-7SB, 0.003 M TOA in ISOPAR L
[16] = contact time 34 days with 1.5 M HNO3
[17] = contact time 70 days with 1.5 M HNO3
[18] = contact time 278 days with 1.5 M HNO3

- Strontium distribution ratio as a function of contact time [2, 15]: 9.6
- Strontium distribution ratio as a function of contact time [2, 16]: 8.5
- Strontium distribution ratio as a function of contact time [2, 17]: 9.5
- Strontium distribution ratio as a function of contact time [2, 18]: 8.0
- third phase formation ([3]; varying MC-10B and DtBuCH18C6 concentrations, 1.5 M Cs-5SB in ISOPAR L, 1.5 HNO3): No third phase formation was observed
- Cesium distribution ratio as a function of contact time [5, 15]: 3.7
- Cesium distribution ratio as a function of contact time [5, 16]: 3.0
- Cesium distribution ratio as a function of contact time [5, 17]: 3.4
- Cesium distribution ratio as a function of contact time [5, 18]: 2.8
Structure (SMILES): CC(C)CCCC(C)CCOc1c2cccc1Cc1cccc3c1OCCOCCOc1ccccc1OCCOCCOc1c(cccc1Cc1cccc(c1OCCC(C)CCCC(C)C)C3)C2 (stereo not shown) [MC-10B, 1,3-alternate-25,27-di(3,7-dimethyloctyl-1-oxy)calix[4]arenebenzocrown-6]
- DSr [1, 6]: 4.03 and 4.11
- DSr [1, 7]: 4.83 and 4.90
- DSr [1, 8]: 4.73 and 4.69
- DSr [1, 9]: 6.90 and 6.94
- Strontium distribution ratio, contact E1 [1, 10]: 9.6
- Strontium distribution ratio, contact St1 [1, 11]: 0.06
- Strontium distribution ratio, contact E2 [1, 12]: 8.6
- Strontium distribution ratio, contact St2 [1, 13]: 0.01
- Strontium distribution ratio, contact E3 [1, 14]: 8.3
- third phase formation ([3]; up to 2 M HNO3, 0.007 M MC-10B, 0.075 M DtBuCH18C6, 0.75 M Cs-7SB in ISOPAR L): no formation of third phases was detected
- DCs [4, 6]: 2.87 and 2.88
- DCs [4, 7]: 2.77 and 2.81
- DCs [4, 8]: 4.48 and 4.37
- DCs [4, 9]: 6.11 and 6.36
- Cesium distribution ratio, contact E1 [4, 10]: 3.7
- Cesium distribution ratio, contact St1 [4, 11]: 0.5
- Cesium distribution ratio, contact E2 [4, 12]: 1.9
- Cesium distribution ratio, contact St2 [4, 13]: 0.2
- Cesium distribution ratio, contact E3 [4, 14]: 1.5
